Measurements published in US8603527B2, “Pharmaceutical formulations of a substituted diaminopurine” (Signal Pharmaceuticals, LLC, priority 2010, dated 2013).
Read-outs that look alike come from different tables or passages of the source.

Test: Pharmacokinetics (plasma and urine) of ascending multiple oral doses in healthy volunteers
Assay type: in vivo, human
Settings: for Intra-subject CV % of AUC(0-τ) / Intra-subject CV % of Cmax: ANOVA, data from Days 10 and 14; for Vd/F / half-life / AUC(0-inf) / Cmax / concentration at 24 h / Tmax / AUC / CL renal / CL renal at 14 days: both sexes, human, oral; for Vd/F: read-out: Vz/F; for Cmax: read-out: Cmax; for concentration at 24 h: read-out: Ctrough; for AUC: τ = 24 hours (N = 8), read-out: AUC(0-τ); for CL renal / CL renal at 14 days: urine, read-out: CLR (renal clearance of drug)
Excerpt: Subjects: Forty healthy male and female subjects between the ages of 20 and 50 were enrolled in the study. All subjects were in good health as determined by a medical history, physical examination, 12-lead ECG, serum biochemistry, hematology, urinalysis and virology. Subjects were not permitted to take any prescribed medication within 30 days or non-prescribed medication within 7 days of the first dose administration.
Study Design: This study was a randomized, double-blind, placebo-controlled, ascending-dose trial to evaluate the safety, tolerability and pharmacokinetics (PK) of multiple oral doses of Compound I. Subjects were enrolled into 1 of the 4 cohorts, 10 subjects per cohort (active:placebo=8:2). Subjects received a multiple oral dose of 25, 50, 100, or 200 mg unformulated Compound I in a capsule, or matching placebo, once daily (QD) for 14 days.
Assessments: Safety and tolerability were assessed by adverse event (AE) monitoring, clinical laboratory testing, vital sign measurement, 12-lead ECG measurement, concomitant medication assessment, and physical examination. Blood and urine samples were collected to assess the PK profile of Compound I and the S-cis isomer of Compound I. Blood samples (˜5 mL) for plasma PK analysis were collected in K2-EDTA vacutainer tubes to yield approximately 2 mL of plasma at each of the following time points: (i) Day 1: before dosing, and 0.25, 0.5, 1, 1.5, 2, 2.5, 3, 4, 6, 8, 10, 12, 16, and 24 hours after dosing; (ii) Day 3 to Day 9: before dosing; (iii) Day 10: before dosing, and 0.25, 0.5, 1, 1.5, 2, 2.5, 3, 4, 6, 8, 10, 12, and 16 hours after dosing; (iv) Day 11 to Day 13: before dosing; (v) Day 14: before dosing, and 0.25, 0.5, 1, 1.5, 2, 2.5, 3, 4, 6, 8, 10, 12, 16, 24, 48, 72, 96, 120, 144, and 168 hours after dosing. Urine samples for the PK analysis were collected as a single block at: (i) Day 1: before dosing (spot collection), 0 to 8, 8 to 16, and 16 to 24 hours after dosing; and (ii) Day 14: 0 to 8, 8 to 16, and 16 to 24 hours after dosing. Both plasma and urine concentrations of Compound I and its S-cis isomer were measured using validated liquid chromatography-tandem mass spectrometry (LC/MS/MS).
Data Analysis: Safety data were summarized using descriptive statistics by treatment. PK parameters for Compound I and its S-cis isomer were calculated using non-compartmental analysis using WinNonlin (Version 5.0.1 or greater; Pharsight Corporation, Mountain View, Calif.). Dose proportionality and dose independence were evaluated by visual inspection. Intra-subject variability was assessed using an ANOVA model using data from Days 10 and 14.

[1] = 25 mg QD, Day 1, urine (n = 8), geometric mean
[2] = 25 mg QD, Day 14, plasma (N = 8), geometric mean
[3] = 25 mg QD, Day 14, urine (n = 8), geometric mean
[4] = 50 mg QD, Day 1, urine (n = 8), geometric mean
[5] = 50 mg QD, Day 14, plasma (N = 8), geometric mean
[6] = 50 mg QD, Day 14, urine (n = 8), geometric mean
[7] = 100 mg QD, Day 1, urine (n = 8), geometric mean
[8] = 100 mg QD, Day 14, plasma (N = 8), geometric mean
[9] = 100 mg QD, Day 14, urine (n = 8), geometric mean
[10] = 200 mg QD, Day 1, urine (n = 8), geometric mean
[11] = 200 mg QD, Day 14, plasma (N = 8), geometric mean
[12] = 200 mg QD, Day 14, urine (n = 8), geometric mean
[13] = plasma, 25 mg, 25 mg QD, Day 1, plasma, healthy subjects (N = 8), geometric mean
[14] = plasma, 25 mg, 25 mg QD, Day 14, plasma, healthy subjects (N = 8), geometric mean
[15] = plasma, 50 mg, 50 mg QD, Day 1, plasma, healthy subjects (N = 8), geometric mean
[16] = plasma, 50 mg, 50 mg QD, Day 14, plasma, healthy subjects (N = 8), geometric mean
[17] = plasma, 100 mg, 100 mg QD, Day 1, plasma, healthy subjects (N = 8), geometric mean
[18] = plasma, 100 mg, 100 mg QD, Day 14, plasma, healthy subjects (N = 8), geometric mean
[19] = plasma, 200 mg, 200 mg QD, Day 1, plasma, healthy subjects (N = 8), geometric mean
[20] = plasma, 200 mg, 200 mg QD, Day 14, plasma, healthy subjects (N = 8), geometric mean

Structure (SMILES): O[C@H]1CC[C@H](Nc2ncc3nc(Nc4c(F)cc(F)cc4F)n([C@H]4CCOC4)c3n2)CC1 [Compound I, 4-((9-((3S)-tetrahydro-3-furanyl)-8-((2,4,6-trifluorophenyl)amino)-9H-purin-2-yl)amino)-trans-cyclohexanol]
- Ae (amount of drug excreted in urine) [1]: 1.3 mg
- fe (percentage of dose excreted in urine) [1]: 5.2%
- CL/F [2]: 95 mL/min
- RA (ratio of accumulation) [2]: 1.9
- Ae (amount of drug excreted in urine) [3]: 3.5 mg
- fe (percentage of dose excreted in urine) [3]: 14.0%
- Intra-subject CV % of AUC(0-τ) (25 mg QD): 7.0%
- Intra-subject CV % of Cmax (25 mg QD): 10.2%
- Ae (amount of drug excreted in urine) [4]: 3.0 mg
- fe (percentage of dose excreted in urine) [4]: 5.9%
- CL/F [5]: 85 mL/min
- RA (ratio of accumulation) [5]: 2.2
- Ae (amount of drug excreted in urine) [6]: 6.9 mg
- fe (percentage of dose excreted in urine) [6]: 13.9%
- Intra-subject CV % of AUC(0-τ) (50 mg QD): 8.4%
- Intra-subject CV % of Cmax (50 mg QD): 5.7%
- Ae (amount of drug excreted in urine) [7]: 5.3 mg
- fe (percentage of dose excreted in urine) [7]: 5.3%
- CL/F [8]: 130 mL/min
- RA (ratio of accumulation) [8]: 1.8
- Ae (amount of drug excreted in urine) [9]: 11.9 mg
- fe (percentage of dose excreted in urine) [9]: 11.9%
- Intra-subject CV % of AUC(0-τ) (100 mg QD): 15.7%
- Intra-subject CV % of Cmax (100 mg QD): 23.7%
- Ae (amount of drug excreted in urine) [10]: 5.0 mg
- fe (percentage of dose excreted in urine) [10]: 2.5%
- CL/F [11]: 146 mL/min
- RA (ratio of accumulation) [11]: 1.5
- Ae (amount of drug excreted in urine) [12]: 11.7 mg
- fe (percentage of dose excreted in urine) [12]: 5.8%
- Intra-subject CV % of AUC(0-τ) (200 mg QD): 14.0%
- Intra-subject CV % of Cmax (200 mg QD): 18.3%
- accumulation at steady state (Day 10 and Day 14, QD dosing): approximately 2 fold
- intra-subject variability of AUCss,(0-τ) (Days 10 and 14): less than 20%
- steady state reached (trough plasma concentrations) (QD dosing): 6 days
- Vd/F [2]: 256 L
- half-life (25 mg QD, Day 14, plasma (N = 8), geometric mean, read-out: t1/2 (converted)): 31 h
- Vd/F [5]: 193 L
- half-life (50 mg QD, Day 14, plasma (N = 8), geometric mean, read-out: t1/2 (converted)): 26 h
- Vd/F [8]: 338 L
- half-life (100 mg QD, Day 14, plasma (N = 8), geometric mean, read-out: t1/2 (converted)): 30 h
- Vd/F [11]: 328 L
- half-life (200 mg QD, Day 14, plasma (N = 8), geometric mean, read-out: t1/2 (converted)): 26 h
- AUC(0-inf) (plasma, 25 mg, 25 mg QD, Day 1, plasma (N = 8), geometric mean): 4260 ng·h/mL
- Cmax [13]: 212 ng/mL
- concentration at 24 h [13]: 55 ng/mL
- Tmax (plasma, 25 mg, 25 mg QD, Day 1, plasma, healthy subjects (N = 8), median, read-out: tmax): 2.3 h
- AUC (plasma, 25 mg, 25 mg QD, Day 1, plasma, geometric mean): 2270 ng·h/mL
- AUC(0-inf) (plasma, 25 mg, 25 mg QD, Day 14, plasma (N = 8), geometric mean): 10200 ng·h/mL
- Cmax [14]: 328 ng/mL
- concentration at 24 h [14]: 130 ng/mL
- Tmax (plasma, 25 mg, 25 mg QD, Day 14, plasma, healthy subjects (N = 8), median, read-out: tmax): 2 h
- AUC (plasma, 25 mg, 25 mg QD, Day 14, plasma, geometric mean): 4400 ng·h/mL
- AUC(0-inf) (plasma, 50 mg, 50 mg QD, Day 1, plasma (N = 8), geometric mean): 7750 ng·h/mL
- Cmax [15]: 406 ng/mL
- concentration at 24 h [15]: 125 ng/mL
- Tmax (plasma, 50 mg, 50 mg QD, Day 1, plasma, healthy subjects (N = 8), median, read-out: tmax): 2.3 h
- AUC (plasma, 50 mg, 50 mg QD, Day 1, plasma, geometric mean): 4560 ng·h/mL
- AUC(0-inf) (plasma, 50 mg, 50 mg QD, Day 14, plasma (N = 8), geometric mean): 21300 ng·h/mL
- Cmax [16]: 740 ng/mL
- concentration at 24 h [16]: 282 ng/mL
- Tmax (plasma, 50 mg, 50 mg QD, Day 14, plasma, healthy subjects (N = 8), median, read-out: tmax): 2 h
- AUC (plasma, 50 mg, 50 mg QD, Day 14, plasma, geometric mean): 9810 ng·h/mL
- AUC(0-inf) (plasma, 100 mg, 100 mg QD, Day 1, plasma (N = 8), geometric mean): 12200 ng·h/mL
- Cmax [17]: 637 ng/mL
- concentration at 24 h [17]: 183 ng/mL
- Tmax (plasma, 100 mg, 100 mg QD, Day 1, plasma, healthy subjects (N = 8), median, read-out: tmax): 2 h
- AUC (plasma, 100 mg, 100 mg QD, Day 1, plasma, geometric mean): 7300 ng·h/mL
- AUC(0-inf) (plasma, 100 mg, 100 mg QD, Day 14, plasma (N = 8), geometric mean): 31600 ng·h/mL
- Cmax [18]: 880 ng/mL
- concentration at 24 h [18]: 400 ng/mL
- Tmax (plasma, 100 mg, 100 mg QD, Day 14, plasma, healthy subjects (N = 8), median, read-out: tmax): 1.8 h
- AUC (plasma, 100 mg, 100 mg QD, Day 14, plasma, geometric mean): 12800 ng·h/mL
- AUC(0-inf) (plasma, 200 mg, 200 mg QD, Day 1, plasma (N = 8), geometric mean): 27000 ng·h/mL
- Cmax [19]: 1440 ng/mL
- concentration at 24 h [19]: 375 ng/mL
- Tmax (plasma, 200 mg, 200 mg QD, Day 1, plasma, healthy subjects (N = 8), median, read-out: tmax): 1.8 h
- AUC (plasma, 200 mg, 200 mg QD, Day 1, plasma, geometric mean): 15100 ng·h/mL
- AUC(0-inf) (plasma, 200 mg, 200 mg QD, Day 14, plasma (N = 8), geometric mean): 48400 ng·h/mL
- Cmax [20]: 1740 ng/mL
- concentration at 24 h [20]: 643 ng/mL
- Tmax (plasma, 200 mg, 200 mg QD, Day 14, plasma, healthy subjects (N = 8), median, read-out: tmax): 1.8 h
- AUC (plasma, 200 mg, 200 mg QD, Day 14, plasma, geometric mean): 22800 ng·h/mL
- half-life (plasma, 25-200 mg QD for 14 days, read-out: mean terminal half-life (t1/2)): 25 to 31 h
- Tmax (plasma, 25-200 mg QD for 14 days, read-out: median tmax): 1 to 2 h
- CL renal (25 mg, 25 mg QD, Day 1, urine (n = 8), geometric mean): 9.5 mL/min
- CL renal at 14 days (25 mg, 25 mg QD, Day 14, urine (n = 8), geometric mean): 13.3 mL/min
- CL renal (50 mg, 50 mg QD, Day 1, urine (n = 8), geometric mean): 10.9 mL/min
- CL renal (50 mg, 50 mg QD, Day 14, urine (n = 8), geometric mean): 11.8 mL/min
- CL renal (100 mg, 100 mg QD, Day 1, urine (n = 8), geometric mean): 12 mL/min
- CL renal (100 mg, 100 mg QD, Day 14, urine (n = 8), geometric mean): 15.4 mL/min
- CL renal (200 mg, 200 mg QD, Day 1, urine (n = 8), geometric mean): 5.5 mL/min
- CL renal at 14 days (200 mg, 200 mg QD, Day 14, urine (n = 8), geometric mean): 8.5 mL/min
